# In patent US20100169994A1, “ANIMAL MODEL” (priority 2007, published 2010):
# “Also recorded” adds a separate entry of the source.
# Assays:
# Type in all cases: in vivo
# [1] = tested on: NK1−/− and NK1+/+ mice; assay: Light/dark exploration box (LDEB), locomotor activity after d-AMP with or without NK1 antagonist pretreatment; conditions: for behaviour (locomotor activity, response to d-AMP) of NK1+/+ mice given a NK1 antagonist ('pseudo knockout'): RP 67580 5 or 10 mg/kg i.p. or L 733060 5 mg/kg; for locomotor activity (number of lines crossed): d-AMP 2.5 mg/kg i.p.
# Experimental: Experiments were carried out on male NK1−/− (‘knock-out’) and NK1+/+(wild-type) mice, weighing 25-35 g (i.e. about 6-7 weeks of age). Mice were derived from a 129/Sv×C57BL/6 genetic background that had been crossed with an outbred MF1 strain (Harlan OLAC, Bicester, UK). All mice were taken from a colony maintained at University College London.
# All experiments tested the behaviour of (formerly) treatment-naïve mice in the LDEB and were carried out between 13:00 h and 15:00 h. Each LDEB consisted of a small ‘dark zone’ (length, 15 cm; width, 20 cm; 174 lux) and a larger ‘light zone’ (length 30 cm; width, 20 cm; 346 lux). The walls and floor of the ‘dark zone’ were coloured black. The walls and floor of the ‘light zone’ were coloured white. The floor of both zones was marked as a grid of 5×5 cm squares (12 in the dark zone, 24 in the light zone) which was used to score locomotor activity. The partition separating the two zones incorporated a small (white) guillotine-style door (height 10.5 cm, width 7.5 cm), which could be raised to allow animals to commute between the two compartments. Mice were tested in pairs in two LDEBs, placed side by side. At 13:00 h, each mouse was placed in the dark zone of a LDEB, with the partition door closed. After 30 min in the dark zone, mice of each genotype were randomly assigned to one of six treatment groups (n=3˜4) and given an injection (10 mL/kg; i.p) of either vehicle (one drop of Tween 80 in saline to appropriate volume) or the NK1 antagonist, RP 67580 (5 or 10 mg/kg). The same subjects were given a second injection or either saline or d-amphetamine (2.5 mg/kg, i.p), 30 min later.
# At 14:30 h, each mouse was transferred to the centre of the novel light zone, facing away from the guillotine style door. The door was immediately lifted to allow the animals to commute freely between the two compartments. Their behaviour was recorded with a Sony Handycam Vision video recorder for 30 min. The number of lines crossed by all four paws of the mouse (as an index of locomotor activity) was scored ‘blind’, in 5-min time-bins.
# In a second experiment, this protocol was repeated, substituting the NK1 antagonist, L 733060 (5 mg/kg) in place of RP 67580. All other details (including Tween vehicle) were the same.
# RP 67580 was administered at 5 or 10 mg/kg; dissolved in a drop of Tween 80 and adjusted to the appropriate concentration by adding 0.9% saline. […]
# The data were analysed by three-way (experiment testing RP 67580) or two-way (for […]) ANOVA using ‘genotype’, ‘drug’ and ‘dose’ (if appropriate) as main factors. […] Data are expressed as means±s.e.mean and P≦0.05 was set as the criterion for significance.
# [2] = tested on: NK1−/− and NK1+/+ mice; assay: Microdialysis of extracellular dopamine in frontal cortex/striatum after d-amphetamine; conditions: d-amphetamine 5 mg/kg i.p.
# Experimental: (§1) Experiments were carried out on male NK1−/− (‘knock-out’) and NK1+/+ (wild-type) mice, weighing 25-35 g (i.e. about 6-7 weeks of age). Mice were derived from a 129/Sv×C57BL/6 genetic background that had been crossed with an outbred MF1 strain (Harlan OLAC, Bicester, UK). All mice were taken from a colony maintained at University College London.
# Microdialysis probes were constructed in-house and equipped with cuprophan membrane (inner diameter 200 μm, outer diameter 250 μm, molecular weight cut-off 5 kD; Medicell International Ltd., England) forming an active dialysis window of 3.5 mm. Anaesthesia was induced in a closed chamber delivering 2.0% halothane combined with 95% O2/5% CO2 at 2 L/min. The mice were then placed in a stereotaxic frame and anaesthesia maintained, via a face mask, with 1.5% halothane in 95% O2/5% CO2 (2 L/min).
# A small incision was made in the scalp to expose the skull and reveal bregma. […] Vital signs were monitored continually to ensure a respiratory rate of 100-190/min (average: 135±20/min). […]
# The dopamine content of the dialysis samples was determined by HPLC coupled to electrochemical detection. […] Dopamine was detected using a Coulochem TI detector (ESA) and the mobile phase was conditioned by a guard cell (ESA model 5020). The […] content of the samples was calculated from the peak height of the chromatogram with reference to an external standard. […]
# [3] = tested on: NK1R−/− and NK1R+/+ mice; assay: Activity meter (locomotor activity chamber), ambulatory activity; conditions: FIG. 2
# Experimental: Behavioural tests were carried out in a standard locomotor activity chamber comprising a custom-made transparent perspex box (length 30 cm; width 19 cm; depth 18 cm). The box was placed in the centre of an activity meter (410×410 mm, Columbia Instruments, USA) which was equipped with parallel infrared beams spanning the chamber. Ambulatory activity was scored whenever the mouse interrupted two adjacent beams. Light intensity within the chamber was 82 lux. All experiments were performed in drug-naive mice, between 14:00 h and 18:30 h. […] The apparatus was cleaned thoroughly with water after each experiment.
# [4] = tested on: NK1−/− and NK1+/+ mice; assay: Light/dark exploration box, locomotor activity after desipramine; conditions: desipramine 10 mg/kg i.p., FIG. 3
# Experimental: Experiments were carried out on male NK1−/− (‘knock-out’) and NK1+/+(wild-type) mice, weighing 25-31 g (i.e. about 6-7 weeks of age). Mice were derived from a 129/Sv×C57BL/6 genetic background that had been crossed with an outbred MF1 strain (Harlan OLAC, Bicester, UK). All mice were taken from a colony maintained at University College London. All experiments were performed in treatment-naïve mice, between 13:00 h and 17:00 h. Behavioural tests were carried out in a custom-built light/dark exploration box (LDEB) (length 45 cm; width 20 cm; depth 25 cm). The test box consisted of a small ‘dark zone’ (length 15 cm; 4 lux) and a larger ‘light zone’ (length 30 cm; 20 lux). The walls and floor of the ‘dark zone’ were coloured black. […] The behaviour of the mouse was recorded on video for the following 30 min. The following behaviours were later scored ‘blind’, in 10 min time-bins: i) latency to leave the light zone following forced entry (anxiety-like behaviour or impulsivity?) ii) latency to first return to the light zone following the first exit (the appearance of all four paws was the criterion for re-entry) (impulsivity) iii) number of returns to the light zone (impulsivity) iv) number of lines crossed by all four paws of the mouse (as an index of locomotor activity) Data were analysed by two-way analysis of variance (ANOVA) using ‘genotype’ and ‘treatment’ as main factors. […]
# [5] = tested on: NK1−/− and NK1+/+ mice; assay: Light/dark exploration box (LDEB), locomotor activity after methylphenidate; conditions: methylphenidate 2.5 mg/kg i.p.
# Experimental: as §1
# All experiments tested the behaviour of (formerly) treatment-naïve mice in the LDEB and were carried out between 13:00 h and 15:00 h. Each LDEB consisted of a small ‘dark zone’ (length, 15 cm; width, 20 cm; 174 lux) and a larger ‘light zone’ (length, 30 cm; width 20 cm; 346 lux). The walls and floor of the ‘dark zone’ were coloured black. The walls and floor of the ‘light zone’ were coloured white. […]
# 30 min later, the mice were transferred to the centre of the novel light zone, facing away from the guillotine style door. […] Their behaviour was recorded with a Sony Handycam Vision video recorder for 30 min. The number of lines crossed by all four paws of the mouse (an index of locomotor activity) was scored ‘blind’, in 10-min time-bins. […]
# The data were analysed by two-way ANOVA using ‘genotype’ and ‘treatment as main factors. […] Data are expressed as means±s.e.mean and […] was set as the criterion for significance.
smiles,measurement,setting,value
FC(F)(F)c1cc(CO[C@H]2CCCN[C@H]2c2ccccc2)cc(C(F)(F)F)c1 [L733060],"behaviour (locomotor activity, response to d-AMP) of NK1+/+ mice given a NK1 antagonist ('pseudo knockout')",[1]; NK1+/+ mice,Mimics that of Nk1−/− Mice
COc1ccccc1CC(=N)N1C[C@@H]2C(=O)CCC(c3ccccc3)(c3ccccc3)[C@@H]2C1 [RP 67580],"behaviour (locomotor activity, response to d-AMP) of NK1+/+ mice given a NK1 antagonist ('pseudo knockout')",[1]; NK1+/+ mice,Mimics that of Nk1−/− Mice
"C[C@H](N)Cc1ccccc1 [d-AMP, d-amphetamine]",locomotor activity (number of lines crossed),[1]; NK1+/+ mice,increased
same,locomotor activity (number of lines crossed),[1]; NK1−/− mice,reduced
same,extracellular dopamine in the frontal cortex/striatum,[2]; NK1+/+ mice,increased
same,extracellular dopamine in the frontal cortex/striatum,[2]; NK1−/− mice,no d-AMP induced increase; also recorded: not NK1−/− mice
CNCCCN1c2ccccc2CCc2ccccc21 [desipramine],locomotor activity in an activity chamber,[3]; NK1R+/+ mice,not NK1R+/+ mice
same,locomotor activity in an activity chamber,[3]; NK1R−/− mice,reduces locomotor activity
same,hyperactivity (locomotor activity) in a light/dark exploration box,[4],reduction
COC(=O)C(c1ccccc1)C1CCCCN1 (centres unmarked) [methylphenidate],locomotor activity (number of lines crossed),[5]; NK1+/+ mice,increased locomotor activity
same,locomotor activity (number of lines crossed),[5]; NK1−/− mice,reduced activity
